# Calls of active or inactive are those of the source. The calls are words filed in the database; no cut-off is given here.
# How the values were obtained:
# Rattus norvegicus [1] = assay: Antidiabetic activity in STZ-induced diabetic Wistar rat assessed as body weight at 15 mg/kg, po administered for 15 days post STZ challenge measured on day 21 (reference value: 319.4 +/- 6.9 g); format: functional
# Rattus norvegicus [2] = assay: Antidiabetic activity in STZ-induced diabetic Wistar rat assessed as change in fasting blood glucose level at 15 mg/kg, po administered on day 7 post STZ challenge measured immediately post dosage by glucometry (reference value: 72.90 +/- 5.2 mg/dl); format: functional
# Rattus norvegicus [3] = assay: Antidiabetic activity in STZ-induced diabetic Wistar rat assessed as decrease in blood glucose level at 15 mg/kg, po administered for 15 days post STZ challenge measured on day 21 by glucometry relative to control; format: functional; design: scale not given: the % may be the effect or the level left
# Rattus norvegicus [4] = assay: Antidiabetic activity in STZ-induced diabetic Wistar rat blood assessed as creatinine level at 15 mg/kg, po administered for 15 days (reference value: 0.56 +/- 0.03 mg/dl); format: functional
# Rattus norvegicus [5] = assay: Antidiabetic activity in STZ-induced diabetic Wistar rat blood assessed as urea level at 15 mg/kg, po administered for 15 days (reference value: 62.98 +/- 6.21 mg/dl); format: functional
# Rattus norvegicus [6] = assay: Antidiabetic activity in STZ-induced diabetic Wistar rat blood assessed as cholesterol level at 15 mg/kg, po administered for 15 days (reference value: 80.09 +/- 9.35 mg/dl); format: functional
# [7] = Toxicity in STZ-induced diabetic Wistar rat liver assessed as macroscopic pathologic lesions at 15 mg/kg, po administered for 15 days; format: organism-based; conditions: in vivo, 360 h
# [8] = Toxicity in STZ-induced diabetic Wistar rat kidney assessed as macroscopic pathologic lesions at 15 mg/kg, po administered for 15 days; format: organism-based; conditions: in vivo, 360 h
# Rattus norvegicus [9] = assay: Antioxidant activity in STZ-induced diabetic Wistar rat liver assessed as catalase level measured as H2O2 consumption per mg of protein at 15 mg/kg, po administered for 15 days (reference value: 68.9 +/- 11.1 microM/min); format: functional
# Rattus norvegicus [10] = assay: Antioxidant activity in STZ-induced diabetic Wistar rat liver assessed as glutathione peroxidase level measured as NADPH consumption per mg of protein at 15 mg/kg, po administered for 15 days (reference value: 10 +/- 0.6 microM/min); format: functional
# Rattus norvegicus [11] = assay: Antioxidant activity in STZ-induced diabetic Wistar rat liver assessed as SOD level measured per mg of protein at 15 mg/kg, po administered for 15 days by NBT reduction test (reference value: 0.22 +/- 0.06 microM/min); format: functional
# Rattus norvegicus [12] = assay: Antidiabetic activity in STZ-induced diabetic Wistar rat liver assessed as effect on central vein architecture at 15 mg/kg, po administered for 15 days by hematoxylin/eosin staining based microscopy; format: functional, organism-based
# Rattus norvegicus [13] = assay: Antidiabetic activity in STZ-induced diabetic Wistar rat assessed as effect on hepatocytes surrounding central vein architecture at 15 mg/kg, po administered for 15 days by hematoxylin/eosin staining based microscopy; format: functional, organism-based
# Rattus norvegicus [14] = assay: Antidiabetic activity in STZ-induced diabetic Wistar rat assessed as effect on islets of langerhans morphology at 15 mg/kg, po administered for 15 days by fluorescence microscopy; format: functional, organism-based
# Rattus norvegicus [15] = assay: Antidiabetic activity in STZ-induced diabetic Wistar rat assessed as increase in beta cells at 15 mg/kg, po administered for 15 days by fluorescence microscopy; format: functional, organism-based
# [16] = Mutagenicity in Salmonella typhimurium TA98 assessed as mutagenic index at 8.65 uM/plate after 48 hrs in presence of S9 fraction by Ames test relative to control; format: toxicity, subcellular; conditions: salmonella enterica subsp. enterica serovar typhimurium, s9, 48 h
# [17] = Mutagenicity in Salmonella typhimurium TA98 assessed as mutagenic index at 34.60 uM/plate after 48 hrs in presence of S9 fraction by Ames test relative to control; format: toxicity, subcellular; conditions: salmonella enterica subsp. enterica serovar typhimurium, s9, 48 h, 34.6 µM
# [18] = Mutagenicity in Salmonella typhimurium TA98 assessed as mutagenic index at 50 uM/plate after 48 hrs in presence of S9 fraction by Ames test relative to control; format: toxicity, subcellular; conditions: salmonella enterica subsp. enterica serovar typhimurium, s9, 48 h
# [19] = Mutagenicity in Salmonella typhimurium TA98 assessed as mutagenic index at 17.30 uM/plate after 48 hrs in absence of S9 fraction by Ames test relative to control; format: toxicity; conditions: salmonella enterica subsp. enterica serovar typhimurium, s9, 48 h, 17.3 µM
# [20] = Mutagenicity in Salmonella typhimurium TA98 assessed as mutagenic index at 34.60 uM/plate after 48 hrs in absence of S9 fraction by Ames test relative to control; format: toxicity; conditions: salmonella enterica subsp. enterica serovar typhimurium, s9, 48 h, 34.6 µM
# [21] = Mutagenicity in Salmonella typhimurium TA98 assessed as mutagenic index at 100 uM/plate after 48 hrs in absence of S9 fraction by Ames test relative to control; format: toxicity; conditions: salmonella enterica subsp. enterica serovar typhimurium, s9, 48 h
# [22] = Mutagenicity in Salmonella typhimurium TA100 assessed as mutagenic index at 17.30 uM/plate after 48 hrs in presence of S9 fraction by Ames test relative to control; format: toxicity, subcellular; conditions: salmonella enterica subsp. enterica serovar typhimurium, s9, 48 h, 17.3 µM
# [23] = Mutagenicity in Salmonella typhimurium TA100 assessed as mutagenic index at 50 uM/plate after 48 hrs in presence of S9 fraction by Ames test relative to control; format: toxicity, subcellular; conditions: salmonella enterica subsp. enterica serovar typhimurium, s9, 48 h
# [24] = Mutagenicity in Salmonella typhimurium TA100 assessed as mutagenic index at 17.30 uM/plate after 48 hrs in absence of S9 fraction by Ames test relative to control; format: toxicity; conditions: salmonella enterica subsp. enterica serovar typhimurium, s9, 48 h, 17.3 µM
# [25] = Mutagenicity in Salmonella typhimurium TA100 assessed as mutagenic index at 34.60 uM/plate after 48 hrs in absence of S9 fraction by Ames test relative to control; format: toxicity; conditions: salmonella enterica subsp. enterica serovar typhimurium, s9, 48 h, 34.6 µM
# [26] = Mutagenicity in Salmonella typhimurium TA100 assessed as mutagenic index at 50 uM/plate after 48 hrs in absence of S9 fraction by Ames test relative to control; format: toxicity; conditions: salmonella enterica subsp. enterica serovar typhimurium, s9, 48 h
# [27] = Mutagenicity in Salmonella typhimurium TA100 assessed as mutagenic index at 100 uM/plate after 48 hrs in absence of S9 fraction by Ames test relative to control; format: toxicity; conditions: salmonella enterica subsp. enterica serovar typhimurium, s9, 48 h
# [28] = Mutagenicity in Salmonella typhimurium TA102 assessed as mutagenic index at 8.65 uM/plate after 48 hrs in presence of S9 fraction by Ames test relative to control; format: toxicity, subcellular; conditions: salmonella enterica subsp. enterica serovar typhimurium, s9, 48 h
# [29] = Mutagenicity in Salmonella typhimurium TA102 assessed as mutagenic index at 100 uM/plate after 48 hrs in presence of S9 fraction by Ames test relative to control; format: toxicity, subcellular; conditions: salmonella enterica subsp. enterica serovar typhimurium, s9, 48 h
# [30] = Mutagenicity in Salmonella typhimurium TA102 assessed as mutagenic index at 8.65 uM/plate after 48 hrs in absence of S9 fraction by Ames test relative to control; format: toxicity; conditions: salmonella enterica subsp. enterica serovar typhimurium, s9, 48 h
# [31] = Mutagenicity in Salmonella typhimurium TA102 assessed as mutagenic index at 100 uM/plate after 48 hrs in absence of S9 fraction by Ames test relative to control; format: toxicity; conditions: salmonella enterica subsp. enterica serovar typhimurium, s9, 48 h
# [32] = Genotoxicity in BALB/c mouse blood at 300 mg/kg after 48 hrs by micronucleus assay; format: toxicity, organism-based; conditions: in vivo
# [33] = Acute toxicity in BALB/c mouse assessed as increase in body weight at 2000 mg/kg, ig after 14 days (reference value: 13.3 +/- 0.3g); format: organism-based; conditions: in vivo, po, 336 h
# Rattus norvegicus [34] = assay: Antidiabetic activity in STZ-induced diabetic Wistar rat assessed as increase in body weight at 15 mg/kg, po administered for 15 days post STZ challenge measured on day 21; format: functional
smiles,measurement,setting,value
CC(=O)O[C@@H]1c2c(ccc3ccc(=O)oc23)OC(C)(C)[C@@H]1OC(C)=O (relative stereo) [QUIANHUCOUMARIN D],Activity,Rattus norvegicus [1],365.1 g
same,Activity,Rattus norvegicus [2],363.2 mg/dL
same,Activity,Rattus norvegicus [3],60.9%
same,Activity,Rattus norvegicus [4],0.51 mg/dL
same,Activity,Rattus norvegicus [5],42.04 mg/dL
same,Activity,Rattus norvegicus [6],70.84 mg/dL
same,Activity,[7],Non-Toxic
same,Activity,[8],Non-Toxic
same,Activity,Rattus norvegicus [9],94.8 µM/min
same,Activity,Rattus norvegicus [10],119 µM/min
same,Activity,Rattus norvegicus [11],0.73 U/min
same,Activity,Rattus norvegicus [12],Active
same,Activity,Rattus norvegicus [13],Active
same,Activity,Rattus norvegicus [14],Active
same,Activity,Rattus norvegicus [15],Active
same,Ratio,[16],1.1
same,Ratio,[17],1.2
same,Ratio,[18],1.1
same,Ratio,[19],1
same,Ratio,[20],0.8
same,Ratio,[21],0.4
same,Ratio,[22],0.9
same,Ratio,[23],0.9
same,Ratio,[24],1
same,Ratio,[25],1
same,Ratio,[26],0.9
same,Ratio,[27],1.4
same,Ratio,[28],0.8
same,Ratio,[29],0.9
same,Ratio,[30],0.7
same,Ratio,[31],0.8
same,Activity,[32],Non-Toxic
same,Activity,[33],13 g
same,Activity,Rattus norvegicus [34],45.7 g

# Source: ChEMBL document CHEMBL4477224, “Antidiabetic effect, antioxidant activity, and toxicity of 3',4'-Di-O-acetyl-cis-khellactone in Streptozotocin-induced diabetic rats” (Bioorg Med Chem Lett, 2016)
